Experiments:
Assay in all cases: LANCE TR-FRET Assay
[1] = biological target: T1, Tyrosine-protein kinase Mer (Homo sapiens, UniProt Q12866)
T1 sequence (Q12866 whole entry): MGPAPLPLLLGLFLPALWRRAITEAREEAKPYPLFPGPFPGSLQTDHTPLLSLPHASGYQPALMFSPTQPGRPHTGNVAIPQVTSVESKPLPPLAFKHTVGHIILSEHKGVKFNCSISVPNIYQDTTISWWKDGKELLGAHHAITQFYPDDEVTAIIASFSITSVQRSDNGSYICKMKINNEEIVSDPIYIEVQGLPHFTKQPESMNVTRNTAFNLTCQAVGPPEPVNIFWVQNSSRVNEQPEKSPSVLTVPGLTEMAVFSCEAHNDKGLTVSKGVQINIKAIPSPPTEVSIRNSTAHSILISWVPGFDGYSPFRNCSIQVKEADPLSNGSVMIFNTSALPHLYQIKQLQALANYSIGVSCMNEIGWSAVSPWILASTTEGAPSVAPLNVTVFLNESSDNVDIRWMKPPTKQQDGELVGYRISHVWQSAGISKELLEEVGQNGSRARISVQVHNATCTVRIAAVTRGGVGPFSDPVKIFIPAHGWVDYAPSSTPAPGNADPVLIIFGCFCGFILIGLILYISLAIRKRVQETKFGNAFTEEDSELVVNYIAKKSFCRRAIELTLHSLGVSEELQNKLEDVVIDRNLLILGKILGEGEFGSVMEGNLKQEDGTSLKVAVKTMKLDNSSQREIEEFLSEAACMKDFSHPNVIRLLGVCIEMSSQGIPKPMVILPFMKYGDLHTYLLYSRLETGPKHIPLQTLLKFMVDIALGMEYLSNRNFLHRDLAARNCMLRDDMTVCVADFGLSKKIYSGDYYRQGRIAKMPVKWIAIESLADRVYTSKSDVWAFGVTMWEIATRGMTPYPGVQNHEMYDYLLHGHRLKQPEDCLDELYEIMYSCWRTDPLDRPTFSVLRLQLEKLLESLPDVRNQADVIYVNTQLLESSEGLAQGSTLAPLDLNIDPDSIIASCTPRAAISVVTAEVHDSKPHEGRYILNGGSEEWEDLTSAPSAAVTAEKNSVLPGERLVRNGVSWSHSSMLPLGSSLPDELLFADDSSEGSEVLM
Description: MER Kinase: The assay of small molecular compounds for inhibiting the activity of MER kinase is based on the LANCE TR-FRET technology of Perkin Elmer Inc., and the assay method is as follows:1. Dilution of compounds: a total of 11 concentrations were obtained using a 3-fold gradient dilution from the highest concentration of 2500 nM (the maximum final concentration of the drug used in this assay was 2500 nM, and the minimum final concentration was 0.042 nM).2. 2.5 μL of the gradient-diluted compounds were taken with a transfer pipette to a 384-well plate.3. Addition of enzyme: 5 μL of 2×MER kinase solution (with a concentration of 1 nM) was taken with a transfer pipette to the corresponding reaction well of the 384-well plate, mixed well and pre-reacted at room temperature for 5 minutes.4. 2.5 μL 4× ULight-labeled Ploy GT (with a concentration of 200 nM)/ATP (with a concentration of 20 μM) mixture was taken with a transfer pipette to the corresponding reaction well of the 384-well plate.5. Negative control: 2.5 μL/well 4× substrate/ATP mixture and 7.5 μL 1× Kinase Assay Buffer were added to the wells of the 384-well plate.Positive control: 2.5 μL/well 4× substrate/ATP mixture, 2.5 μL/well 1× Kinase Assay Buffer containing 4% DMSO, and 5 μL/well 2×MER kinase solution were added to the 384-well plate. The final concentration of DMSO in the reaction system was 1%.6. The mixture was mixed well and then centrifuged and reacted at room temperature in dark for 60 min.7. Termination of the enzymatic reaction: 5 μL of 4× stop solution was taken with a transfer pipette to the wells of the 384-well plate, mixed and then centrifuged, and reacted at room temperature for 5 min.8. Development of the reaction: 5 μL of 4× detection solution was taken with a transfer pipette to the wells of the 384-well plate for color development, and the mixture was mixed and then centrifuged and reacted at room temperature for 60 min.9. The 384-well plate was placed into the Envision plate reader and the signal was detected using the appropriate program.10. Analysis and processing of the raw data:The drug concentrations and the corresponding inhibition rates were input into GraphPad Prism5 for calculation, and the inhibition rate of the compounds were calculated as follows: inhibition rate (%)=(reading of positive well−reading of experimental well)/(reading of positive control well−reading of negative control well)×100%.

[2] = biological target: High affinity nerve growth factor receptor (Homo sapiens, UniProt P04629)
High affinity nerve growth factor receptor, sequence (P04629 whole entry): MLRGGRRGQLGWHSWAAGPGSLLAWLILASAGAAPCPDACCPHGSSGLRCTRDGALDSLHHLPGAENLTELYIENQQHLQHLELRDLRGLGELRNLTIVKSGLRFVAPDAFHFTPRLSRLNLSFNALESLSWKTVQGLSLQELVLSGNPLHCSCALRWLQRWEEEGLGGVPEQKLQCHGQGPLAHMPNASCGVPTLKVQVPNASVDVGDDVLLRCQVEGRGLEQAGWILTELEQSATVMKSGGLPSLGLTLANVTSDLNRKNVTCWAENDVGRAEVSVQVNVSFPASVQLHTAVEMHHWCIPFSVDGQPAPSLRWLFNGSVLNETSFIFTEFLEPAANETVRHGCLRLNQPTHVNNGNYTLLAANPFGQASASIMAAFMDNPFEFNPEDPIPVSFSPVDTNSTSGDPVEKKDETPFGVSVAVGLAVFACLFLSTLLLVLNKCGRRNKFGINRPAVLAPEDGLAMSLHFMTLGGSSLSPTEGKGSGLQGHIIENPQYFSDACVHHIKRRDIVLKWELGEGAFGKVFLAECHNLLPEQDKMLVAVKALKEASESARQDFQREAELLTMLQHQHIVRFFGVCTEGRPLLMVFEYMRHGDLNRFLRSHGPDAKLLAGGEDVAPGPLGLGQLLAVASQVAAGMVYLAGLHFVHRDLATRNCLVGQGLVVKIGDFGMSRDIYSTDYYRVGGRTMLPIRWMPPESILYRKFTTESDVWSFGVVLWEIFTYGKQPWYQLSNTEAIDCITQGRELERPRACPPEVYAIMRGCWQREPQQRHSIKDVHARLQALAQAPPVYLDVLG
Description: TRKA Kinase: The assay of small molecular compounds for inhibiting the activity of TRKA kinase is based on the LANCE TR-FRET technology of Perkin Elmer Inc., and the assay method is as follows:1. […] 2.5 μL of the gradient-diluted compounds were taken with a transfer pipette to a 384-well plate.3. Addition of enzyme: 5 μL of 2×TRKA kinase solution (with a concentration of 2 nM) was taken with a transfer pipette to the corresponding reaction well of the 384-well plate, mixed well and pre-reacted at room temperature for 5 minutes.4. 2.5 μL 4× Ultra ULight-labeled TK Peptide (with a concentration of 400 nM)/ATP (with a concentration of 40 μM) mixture was taken with a transfer pipette to the corresponding reaction well of the 384-well plate.5. Negative control: 2.5 μL/well 4× substrate/ATP mixture and 7.5 μL 1× Kinase Assay Buffer were added to the wells of the 384-well plate.Positive control: 2.5 μL/well 4× substrate/ATP mixture, 2.5 μL/well 1× Kinase Assay Buffer containing 4% DMSO, and 5 μL/well 2×TRKA kinase solution were added to the 384-well plate. The final concentration of DMSO in the reaction system was 1%.6. The mixture was mixed well and then centrifuged and reacted at room temperature in dark for 60 min.7. Termination of the enzymatic reaction: 5 μL of 4× stop solution was taken with a transfer pipette to the wells of the 384-well plate, mixed and then centrifuged, and reacted at room temperature for 5 min.8. Development of the reaction: 5 μL of 4× detection solution was taken with a transfer pipette to the wells of the 384-well plate for color development, and the mixture was mixed and then centrifuged and reacted at room temperature for 60 min.9. The 384-well plate was placed into the Envision plate reader and the signal was detected using the appropriate program.10.

[3] = biological target: Hepatocyte growth factor receptor (Homo sapiens, UniProt P08581)
Hepatocyte growth factor receptor, sequence (P08581 whole entry): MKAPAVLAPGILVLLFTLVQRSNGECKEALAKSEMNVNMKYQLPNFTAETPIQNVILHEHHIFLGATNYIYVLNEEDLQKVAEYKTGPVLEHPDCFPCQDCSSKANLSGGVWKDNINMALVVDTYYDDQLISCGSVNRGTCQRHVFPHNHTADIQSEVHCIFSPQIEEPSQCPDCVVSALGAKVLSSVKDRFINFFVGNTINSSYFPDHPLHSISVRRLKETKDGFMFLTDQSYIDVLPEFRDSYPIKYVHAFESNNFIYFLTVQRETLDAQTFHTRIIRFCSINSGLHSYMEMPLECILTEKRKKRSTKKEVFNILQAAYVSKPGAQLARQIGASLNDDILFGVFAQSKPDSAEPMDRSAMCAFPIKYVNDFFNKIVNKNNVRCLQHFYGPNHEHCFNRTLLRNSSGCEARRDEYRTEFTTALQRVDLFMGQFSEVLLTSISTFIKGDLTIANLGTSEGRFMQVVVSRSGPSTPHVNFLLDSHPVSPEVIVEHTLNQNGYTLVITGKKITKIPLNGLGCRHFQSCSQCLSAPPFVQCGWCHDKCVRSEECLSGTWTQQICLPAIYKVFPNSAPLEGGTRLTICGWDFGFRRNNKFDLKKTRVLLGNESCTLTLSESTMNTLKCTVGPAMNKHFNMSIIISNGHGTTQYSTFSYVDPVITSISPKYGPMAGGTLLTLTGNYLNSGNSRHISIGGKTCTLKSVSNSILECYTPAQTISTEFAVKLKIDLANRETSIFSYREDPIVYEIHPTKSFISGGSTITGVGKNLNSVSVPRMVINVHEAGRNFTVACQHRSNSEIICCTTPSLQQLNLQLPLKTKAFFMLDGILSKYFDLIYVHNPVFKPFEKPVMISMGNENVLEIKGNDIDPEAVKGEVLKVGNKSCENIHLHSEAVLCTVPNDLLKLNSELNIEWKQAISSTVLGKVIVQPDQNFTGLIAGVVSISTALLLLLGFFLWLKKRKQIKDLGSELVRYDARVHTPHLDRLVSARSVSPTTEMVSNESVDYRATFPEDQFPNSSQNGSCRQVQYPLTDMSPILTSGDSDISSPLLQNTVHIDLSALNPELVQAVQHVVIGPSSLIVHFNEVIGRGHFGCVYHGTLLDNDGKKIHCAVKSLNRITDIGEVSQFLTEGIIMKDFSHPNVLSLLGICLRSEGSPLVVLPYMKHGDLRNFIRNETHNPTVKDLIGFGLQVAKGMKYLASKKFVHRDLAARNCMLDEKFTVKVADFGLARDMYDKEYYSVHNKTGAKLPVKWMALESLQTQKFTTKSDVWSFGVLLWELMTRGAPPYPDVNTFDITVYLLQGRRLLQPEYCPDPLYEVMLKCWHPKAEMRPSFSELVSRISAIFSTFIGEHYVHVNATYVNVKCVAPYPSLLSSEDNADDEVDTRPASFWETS
Description: c-MET Kinase: The assay is based on the LANCE TR-FRET technology of Perkin Elmer Inc., and the assay method is as follows:1. Dilution of compounds: a total of 11 concentrations were obtained using a 3-fold gradient dilution from the highest concentration of 2500 nM (the maximum final concentration of the drug used in this assay was 2500 nM, and the minimum final concentration was 0.042 nM).2. 2.5 μL of the gradient-diluted compounds were taken with a transfer pipette to a 384-well plate.3. Addition of enzyme: 5 μL of 2×c-MET kinase solution (with a concentration of 2 nM) was taken with a transfer pipette to the corresponding reaction well of the 384-well plate, mixed well and pre-reacted at room temperature for 5 minutes.4. 2.5 μL 4× Ultra ULight™-JAK-1 (Tyr1023) Peptide (with a concentration of 400 nM)/ATP (with a concentration of 40 μM) mixture was taken with a transfer pipette to the corresponding reaction well of the 384-well plate.5. Negative control: 2.5 μL/well 4× substrate/ATP mixture and 7.5 μL 1× Kinase Assay Buffer were added to the wells of the 384-well plate.6. Positive control: 2.5 μL/well 4× substrate/ATP mixture, 2.5 μL/well 1× Kinase Assay Buffer containing 16% DMSO, and 5 μL/well 2× c-MET kinase solution were added to the 384-well plate. The final concentration of DMSO in the reaction system was 4%.7. The mixture was mixed well and then centrifuged and reacted at room temperature in dark for 60 min.8. Termination of the enzymatic reaction: 5 μL of 4× stop solution was taken with a transfer pipette to the wells of the 384-well plate, mixed and then centrifuged, and reacted at room temperature for 5 min.9. Development of the reaction: 5 μL of 4× detection solution was taken with a transfer pipette to the wells of the 384-well plate for color development, and the mixture was mixed and then centrifuged and reacted at room temperature for 60 min.10. The 384-well plate was placed into the Envision plate reader and the signal was detected using the appropriate program.11. Analysis and processing of the raw data:12. […]

[4] = biological target: Vascular endothelial growth factor receptor 2 (Homo sapiens, UniProt P35968)
Vascular endothelial growth factor receptor 2, sequence (P35968 whole entry): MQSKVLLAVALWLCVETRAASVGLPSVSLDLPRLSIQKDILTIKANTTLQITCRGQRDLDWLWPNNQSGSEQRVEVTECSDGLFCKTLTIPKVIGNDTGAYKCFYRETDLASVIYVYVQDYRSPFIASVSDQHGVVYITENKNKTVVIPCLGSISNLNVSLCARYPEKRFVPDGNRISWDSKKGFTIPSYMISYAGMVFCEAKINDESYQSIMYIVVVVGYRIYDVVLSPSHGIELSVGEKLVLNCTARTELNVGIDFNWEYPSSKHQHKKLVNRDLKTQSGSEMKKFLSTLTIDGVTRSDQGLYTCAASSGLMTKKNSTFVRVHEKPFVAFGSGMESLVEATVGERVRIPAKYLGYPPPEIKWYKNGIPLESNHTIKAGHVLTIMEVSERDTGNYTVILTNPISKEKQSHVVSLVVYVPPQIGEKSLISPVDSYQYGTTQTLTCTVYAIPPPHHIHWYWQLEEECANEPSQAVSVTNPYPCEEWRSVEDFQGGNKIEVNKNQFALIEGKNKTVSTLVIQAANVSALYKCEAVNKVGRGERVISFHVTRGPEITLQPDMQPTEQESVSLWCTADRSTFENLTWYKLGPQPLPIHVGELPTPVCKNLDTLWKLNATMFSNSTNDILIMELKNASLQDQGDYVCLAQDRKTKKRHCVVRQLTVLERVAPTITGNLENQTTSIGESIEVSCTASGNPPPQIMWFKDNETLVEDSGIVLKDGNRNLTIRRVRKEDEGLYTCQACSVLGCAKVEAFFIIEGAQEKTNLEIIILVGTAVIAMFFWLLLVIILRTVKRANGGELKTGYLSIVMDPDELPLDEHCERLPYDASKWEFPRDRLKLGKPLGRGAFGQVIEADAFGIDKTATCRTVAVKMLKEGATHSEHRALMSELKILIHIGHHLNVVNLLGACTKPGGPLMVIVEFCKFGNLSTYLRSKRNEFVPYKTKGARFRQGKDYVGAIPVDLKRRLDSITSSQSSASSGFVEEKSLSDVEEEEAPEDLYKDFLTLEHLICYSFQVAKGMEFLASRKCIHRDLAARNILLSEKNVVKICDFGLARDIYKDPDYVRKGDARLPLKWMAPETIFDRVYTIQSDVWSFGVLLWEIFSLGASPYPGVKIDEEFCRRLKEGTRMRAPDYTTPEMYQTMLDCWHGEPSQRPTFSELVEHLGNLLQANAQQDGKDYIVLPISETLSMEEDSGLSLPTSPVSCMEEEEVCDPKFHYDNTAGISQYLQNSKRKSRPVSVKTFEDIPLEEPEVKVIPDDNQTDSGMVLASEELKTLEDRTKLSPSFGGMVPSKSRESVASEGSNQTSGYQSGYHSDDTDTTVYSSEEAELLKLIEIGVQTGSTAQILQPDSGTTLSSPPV
Description: VEGFR-2 Kinase: The assay is based on the LANCE TR-FRET technology of Perkin Elmer Inc., and the assay method is as follows:1. Dilution of compounds: a total of 11 concentrations were obtained using a 3-fold gradient dilution from the highest concentration of 2500 nM (the maximum final concentration of the drug used in this assay was 2500 nM, and the minimum final concentration was 0.042 nM).2. 2.5 μL of the gradient-diluted compounds were taken with a transfer pipette to a 384-well plate.3. Addition of enzyme: 5 μL of 2×VEGFR2 kinase solution (with a concentration of 0.5 nM) was taken with a transfer pipette to the corresponding reaction well of the 384-well plate, mixed well and pre-reacted at room temperature for 30 minutes.4. 2.5 μL 4× Ultra ULight™-JAK-1 (Tyr1023) Peptide (with a concentration of 200 nM)/ATP (with a concentration of 40 μM) mixture was taken with a transfer pipette to the corresponding reaction well of the 384-well plate.5. Negative control: 2.5 μL/well 4× substrate/ATP mixture and 7.5 μL 1× Kinase Assay Buffer were added to the wells of the 384-well plate.6. Positive control: 2.5 μL/well 4× substrate/ATP mixture, 2.5 μL/well 1× Kinase Assay Buffer containing 16% DMSO, and 5 μL/well 2×VEGFR-2 kinase solution were added to the 384-well plate. […] The 384-well plate was placed into the Envision plate reader and the signal was detected using the appropriate program.11. […]

Measured: IC50

CC(C)n1cc(C(=O)Nc2ccc(Oc3ccnc4cc(OCCCCCCN(C)C)c5c(c34)OCCO5)c(F)c2)c(=O)n(-c2ccc(F)cc2)c1=O [US12202835, Example 85]
< 50 nM: [1] | [2]

CN(C)CCCOc1cc2nccc(Oc3ccc(NC(=O)c4cn(C)c(=O)n(-c5ccc(F)cc5)c4=O)cc3F)c2c2c1OCCO2 [US12202835, Example 86]
< 50 nM: [1] | [3] | [2]

CCOc1ccn(-c2ccc(F)cc2)c(=O)c1C(=O)Nc1ccc(Oc2ccnc3cc(OCCCCCCN(C)C)c4c(c23)OCCO4)c(F)c1 [US12202835, Example 60]
< 50 nM: all assays above

CCOc1ccn(-c2ccc(F)cc2)c(=O)c1C(=O)Nc1ccc(Oc2ccnc3cc(OCCCN(C)C)c4c(c23)OCCO4)c(F)c1 [US12202835, Example 61]
< 50 nM: all assays above

From BindingDB's records for patent US12202835 (Beijing Scitech-Mq Pharmaceuticals, 2025)
